# Data from patent US5166321A, “Cecropin polypetides with activity against Gram-positive and Gram-negative bacteria” (International Genetic Engineering, Inc., priority 1987, dated 1992).
# Square brackets hold non-standard residues; d marks the D form. Ends that are not written are not given here. Peptide text beside a SMILES is read from it. hSer = N[C@@H](CCO)C(=O)O
# Key:
# E. coli MC1061 = assay: Agar-well halo assay of bactericidal activity; assay type: cell-based, Escherichia coli; conditions: overnight incubation at 25° C.
# Method: (§1) The assay for antimicrobial activity was performed by pouring 10 ml of agar in TYE media containing about 10^7 viable cells of the test organisms. Wells, 2 mm in diameter, were punched in the agar plates. Aliquots of the modified cecropin-like polypeptides (2-12 ul) were then added to each well. The diameter of the inhibition zones, or haloes, around the wells, were measured after overnight incubation at 25° C.
# (§2) The activities of various cecropin-like polypeptides were tested against both Gram-negative and Gram-positive organisms. Anti-microbial activity against the Gram-negative organisms remained unaltered for most of the Gram-negative bacteria (except, i.e., Serratia marcescens) as shown in Table 1. […] To determine a standard of halo formation, the various modified cecropin-like polypeptides were also applied to E. coli D21. Activity shown in Tables 1 and 2 is expressed as the ratio of the radius of the cleared halo for each organism versus that for E. coli D21.
# S. typhimurium = assay: Agar-well halo assay of bactericidal activity; assay type: cell-based, Salmonella typhimurium; conditions: overnight incubation at 25° C.
# Method: as §1, §2
# E. cloacae = assay: Agar-well halo assay of bactericidal activity; assay type: cell-based; conditions: overnight incubation at 25° C.
# Method: as §1, §2
# P. aeruginosa = assay: Agar-well halo assay of bactericidal activity; assay type: cell-based, Pseudomonas aeruginosa; conditions: overnight incubation at 25° C.
# Method: as §1, §2
# Bacillus megaterium [1] = assay: Agar-well halo assay of bactericidal activity; assay type: cell-based; conditions: for Relative activity (ratio of the radius of the cleared halo versus that for E. coli D21): B. megaterium, overnight incubation at 25° C.
# Method: as §1, §2
# (§3) The cecropin-like polypeptide modified at the carboxy terminus with ethylenediamine and naturally occurring cecropin A were tested against a variety of organisms. The relative activities of the antimicrobial agents were expressed per nanomole of polypeptide applied to each well (Table 3).
# Micrococcus luteus = assay: Agar-well halo assay of bactericidal activity; assay type: cell-based; conditions: for Relative activity (ratio of the radius of the cleared halo versus that for E. coli D21): M. luteus, overnight incubation at 25° C.
# Method: as §1, §2, §3
# Streptococcus faecalis = assay: Agar-well halo assay of bactericidal activity; assay type: cell-based; conditions: for Relative activity (ratio of the radius of the cleared halo versus that for E. coli D21): S. faecalis, overnight incubation at 25° C.
# Method: as §1, §2, §3
# B. subtilis = assay: Agar-well halo assay of bactericidal activity; assay type: cell-based, Bacillus subtilis; conditions: for Relative activity (ratio of the radius of the cleared halo versus that for E. coli D21): B. subtilis, overnight incubation at 25° C.
# Method: as §1, §2, §3
# Escherichia coli = assay: Agar-well halo assay, activity per nanomole; assay type: cell-based; conditions: per nanomole of polypeptide applied to each well
# Method: as §1, §3
# Bacillus megaterium [2] = conditions: from the literature; cited from earlier work
compound,measurement,setting,value
CC[C@H](C)[C@H](NC(=O)CNC(=O)[C@H](CC(=O)O)NC(=O)[C@H](CCCNC(=N)N)NC(=O)[C@@H](NC(=O)[C@H](CC(N)=O)NC(=O)[C@H](CCC(N)=O)NC(=O)CNC(=O)[C@@H](NC(=O)[C@H](CCCCN)NC(=O)[C@H](CCC(=O)O)NC(=O)[C@@H](NC(=O)[C@H](CCCCN)NC(=O)[C@H](CCCCN)NC(=O)[C@H](Cc1ccccc1)NC(=O)[C@H](CC(C)C)NC(=O)[C@H](CCCCN)NC(=O)[C@H](Cc1c[nH]c2ccccc12)NC(=O)[C@@H](N)CCCCN)[C@@H](C)CC)C(C)C)[C@@H](C)CC)C(=O)N[C@H](C(=O)N[C@@H](CCCCN)C(=O)N[C@@H](C)C(=O)NCC(=O)N1CCC[C@H]1C(=O)N[C@@H](C)C(=O)N[C@H](C(=O)N[C@@H](C)C(=O)N[C@H](C(=O)N[C@H](C(=O)NCC(=O)N[C@@H](CCC(N)=O)C(=O)N[C@@H](C)C(=O)N[C@H](C(=O)N[C@@H](CCC(N)=O)C(=O)N[C@H](C(=O)N[C@@H](C)C(=O)N[C@@H](CCCCN)C(=O)N[C@@H](CCO)C(N)=O)[C@@H](C)CC)[C@@H](C)O)C(C)C)C(C)C)C(C)C)[C@@H](C)CC [CA-HS-CONH2] (H-KWKLFKKIEKVGQNIRDGIIKAGPAVAVVGQATQIAK[hSer]-NH2),Relative activity (ratio of the radius of the cleared halo versus that for E. coli D21),E. coli MC1061,0.81
same,Relative activity (ratio of the radius of the cleared halo versus that for E. coli D21),S. typhimurium,1.09
same,Relative activity (ratio of the radius of the cleared halo versus that for E. coli D21),E. cloacae,0.86
same,Relative activity (ratio of the radius of the cleared halo versus that for E. coli D21),P. aeruginosa,0.71
same,Relative activity (ratio of the radius of the cleared halo versus that for E. coli D21),Bacillus megaterium [1],0.4
same,Relative activity (ratio of the radius of the cleared halo versus that for E. coli D21),Micrococcus luteus,1.4 ± 0.2
same,Relative activity (ratio of the radius of the cleared halo versus that for E. coli D21),Streptococcus faecalis,0
same,Relative activity (ratio of the radius of the cleared halo versus that for E. coli D21),B. subtilis,0.06 ± 0.06
CC[C@H](C)[C@H](NC(=O)CNC(=O)[C@H](CC(=O)O)NC(=O)[C@H](CCCNC(=N)N)NC(=O)[C@@H](NC(=O)[C@H](CC(N)=O)NC(=O)[C@H](CCC(N)=O)NC(=O)CNC(=O)[C@@H](NC(=O)[C@H](CCCCN)NC(=O)[C@H](CCC(=O)O)NC(=O)[C@@H](NC(=O)[C@H](CCCCN)NC(=O)[C@H](CCCCN)NC(=O)[C@H](Cc1ccccc1)NC(=O)[C@H](CC(C)C)NC(=O)[C@H](CCCCN)NC(=O)[C@H](Cc1c[nH]c2ccccc12)NC(=O)[C@@H](N)CCCCN)[C@@H](C)CC)C(C)C)[C@@H](C)CC)C(=O)N[C@H](C(=O)N[C@@H](CCCCN)C(=O)N[C@@H](C)C(=O)NCC(=O)N1CCC[C@H]1C(=O)N[C@@H](C)C(=O)N[C@H](C(=O)N[C@@H](C)C(=O)N[C@H](C(=O)N[C@H](C(=O)NCC(=O)N[C@@H](CCC(N)=O)C(=O)N[C@@H](C)C(=O)N[C@H](C(=O)N[C@@H](CCC(N)=O)C(=O)N[C@H](C(=O)N[C@@H](C)C(=O)N[C@@H](CCCCN)C(=O)N[C@@H](CCO)C(=O)O)[C@@H](C)CC)[C@@H](C)O)C(C)C)C(C)C)C(C)C)[C@@H](C)CC [CA-HS-COOH] (H-KWKLFKKIEKVGQNIRDGIIKAGPAVAVVGQATQIAK[hSer]-OH),Relative activity (ratio of the radius of the cleared halo versus that for E. coli D21),E. coli MC1061,0.86
same,Relative activity (ratio of the radius of the cleared halo versus that for E. coli D21),S. typhimurium,1.07
same,Relative activity (ratio of the radius of the cleared halo versus that for E. coli D21),E. cloacae,0.79
same,Relative activity (ratio of the radius of the cleared halo versus that for E. coli D21),P. aeruginosa,0.76
same,Relative activity (ratio of the radius of the cleared halo versus that for E. coli D21),Bacillus megaterium [1],0.5
same,Relative activity (ratio of the radius of the cleared halo versus that for E. coli D21),Micrococcus luteus,0.1 ± 0.1
same,Relative activity (ratio of the radius of the cleared halo versus that for E. coli D21),Streptococcus faecalis,0
same,Relative activity (ratio of the radius of the cleared halo versus that for E. coli D21),B. subtilis,0
KWKLFKKIEKVGQNIRDGIIKAGPAVAVVGQATQIAK [CA-COOH],Relative activity (ratio of the radius of the cleared halo versus that for E. coli D21),E. coli MC1061,0.84
same,Relative activity (ratio of the radius of the cleared halo versus that for E. coli D21),S. typhimurium,1.09
same,Relative activity (ratio of the radius of the cleared halo versus that for E. coli D21),E. cloacae,0.84
same,Relative activity (ratio of the radius of the cleared halo versus that for E. coli D21),P. aeruginosa,0.70
same,Relative activity (ratio of the radius of the cleared halo versus that for E. coli D21),Bacillus megaterium [1],0.2
same,Relative activity (ratio of the radius of the cleared halo versus that for E. coli D21),Micrococcus luteus,0
same,Relative activity (ratio of the radius of the cleared halo versus that for E. coli D21),Streptococcus faecalis,0
same,Relative activity (ratio of the radius of the cleared halo versus that for E. coli D21),B. subtilis,0
"KWKLFKKIEKVGQNIRDGIIKAGPAVAVVGQATQIAK-NH2 [CA-NH2, cecropin A, reference compound]",Relative activity (ratio of the radius of the cleared halo versus that for E. coli D21),E. coli MC1061,0.80
same,Relative activity (ratio of the radius of the cleared halo versus that for E. coli D21),S. typhimurium,1.06
same,Relative activity (ratio of the radius of the cleared halo versus that for E. coli D21),E. cloacae,0.92
same,Relative activity (ratio of the radius of the cleared halo versus that for E. coli D21),P. aeruginosa,0.70
same,Relative activity (ratio of the radius of the cleared halo versus that for E. coli D21),Bacillus megaterium [1],0.7
same,Activity per Nanomole (radius of the inhibitory ring),"Bacillus megaterium [1]; Bacillus megaterium, per nanomole of polypeptide applied to each well",5.1 millimeters
same,Relative activity (ratio of the radius of the cleared halo versus that for E. coli D21),Micrococcus luteus,1.2 ± 0.2
same,Activity per Nanomole (radius of the inhibitory ring),"Micrococcus luteus; Micrococcus luteus, per nanomole of polypeptide applied to each well",6.1 millimeters
same,Relative activity (ratio of the radius of the cleared halo versus that for E. coli D21),Streptococcus faecalis,0
same,Activity per Nanomole (radius of the inhibitory ring),"Streptococcus faecalis; Streptococcus faecalis, per nanomole of polypeptide applied to each well",< 0.5 millimeters
same,Relative activity (ratio of the radius of the cleared halo versus that for E. coli D21),B. subtilis,0.1 ± 0.05
same,Activity per Nanomole (radius of the inhibitory ring),"B. subtilis; Bacillus subtilus, per nanomole of polypeptide applied to each well",< 0.5 millimeters
same,Activity per Nanomole (radius of the inhibitory ring),Escherichia coli,6.1 millimeters
same,Sensitivity of Bacillus megaterium to the cecropin,Bacillus megaterium [2],highly sensitive
"cecropin B (KWKVFKKIEKMGRNIRNGIVKAGPAIAVLGEAKAL; ends and bridges not checked; UniProt P01508 27-61, looked up) [major natural antibacterial peptide purified from immune hemolymph]",Sensitivity of Bacillus megaterium to the cecropin,Bacillus megaterium [2],highly sensitive
cecropin D,Sensitivity of Bacillus megaterium to the cecropin,Bacillus megaterium [2],relatively resistant
